The test system of data set [1] is A549. The data set can be described thus: Induction of cell cycle arrest in human A549 cells assessed as accumulation at S phase at 40 nM incubated for 24 hrs by PI staining based flow cytometry (Rvb= 20.94%). In kind it is functional. (Flow cytometry measures light scatter and fluorescence of single cells or particles in a stream.)
Data set [2] concerns A549. The data set can be described thus: Induction of apoptosis in human A549 cells assessed as viable cells at 20 nM incubated for 24 hrs by annexin V-FITC/propidium iodide staining based flow cytometry analysis (reference value: 96.44%). The note with it: read-out: Activity. The class given is functional.
The test system of data set [3] is B16-F10. The data set can be described thus: Antimigratory activity against mouse B16-F10 cells assessed as inhibition of cell migration at 10 nM and incubated for 12 hrs by scratch wound healing assay (reference value: 81.9 +/- 0.64%). The class given is functional. Set-up: scale not given: the % may be the effect or the level left.
In data set [4] the test system is A549. Nature of the data set: Induction of cell cycle arrest in human A549 cells assessed as accumulation at G1 phase at 40 nM incubated for 24 hrs by PI staining based flow cytometry (Rvb= 65.68%). In kind it is functional.
The subject of data set [5] is A549. Nature of the data set: Antitumor activity against human A549 cells xenografted in BALB/c mouse assessed as tumor growth inhibition at 5 mg/kg, ip administered every other day for 25 days. The class given is functional. Conditions: A549, 600 h, time 25 day, read-out: TGI. (In general: Xenograft models place foreign cells or tissue in a host animal.)
Data set [6] concerns A549. The data set can be described thus: Antiproliferative activity against human A549 cells assessed as inhibition of cell growth measured after 48 hrs by MTT assay. The note with it: A549, 48 h. The class given is functional, cell-based. (Tetrazolium dyes change colour on reduction, which living cells bring about.)
Data set [7] deals with HeLa. Nature of the data set: Antiproliferative activity against human HeLa cells assessed as inhibition of cell growth measured after 48 hrs by MTT assay. In kind it is functional, cell-based.
For data set [8], the system named is A549. The data set can be described thus: Induction of apoptosis in human A549 cells assessed as necrotic cells at 20 nM incubated for 24 hrs by annexin V-FITC/propidium iodide staining based flow cytometry analysis (reference value: 2.36%). The class given is functional.
Data set [9] deals with A549. Nature of the data set: Antimigratory activity against human A549 cells assessed as inhibition of cell migration at 10 nM and incubated for 12 hrs by scratch wound healing assay (reference value: 29.5 +/- 1.34%). The class given is functional. Set-up: scale not given: the % may be the effect or the level left.
Data set [10] is described as follows: Toxicity in BALB/c mouse xenografted with human A549 cells assessed as change in body weight at 5 mg/kg, ip administered every other day for 25 days. The class given is organism-based. Conditions: in vivo, 600 h, time 25 day.
In data set [11] the test system is A549. Nature of the data set: Induction of apoptosis in human A549 cells assessed as necrotic cells at 40 nM incubated for 24 hrs by annexin V-FITC/propidium iodide staining based flow cytometry analysis (reference value: 2.36%). The class given is functional.
Data set [12] in a line: Toxicity in BALB/c mouse assessed as adverse effect at 10 mg/kg, ip. In kind it is organism-based. The note with it: in vivo.
The test system of data set [13] is A549. Nature of the data set: Induction of apoptosis in human A549 cells assessed as viable cells at 10 nM incubated for 24 hrs by annexin V-FITC/propidium iodide staining based flow cytometry analysis (reference value: 96.44%). The class given is functional. Conditions: read-out: Activity.
Data set [14] deals with A549. The data set can be described thus: Induction of cell cycle arrest in human A549 cells assessed as accumulation at S phase at 10 nM incubated for 24 hrs by PI staining based flow cytometry (Rvb= 20.94%). In kind it is functional.
The nature of data set [15]: Cmax in Sprague-Dawley rat at 1 mg/kg, iv by LC-MS analysis. Conditions: in vivo. The class given is ADME, organism-based. On the set-up: dose 1 mg/kg, route iv.
Data set [16] deals with A2780. The data set can be described thus: cells. The note with it: Homo sapiens, A2780, 48 h.
Description: Antiproliferative activity against human A2780 cells assessed as inhibition of cell growth incubated for 48 hrs by MTT assay
Data set [17] can be described thus: AUC(0 to t) in Sprague-Dawley rat at 1 mg/kg, iv by LC-MS analysis. Set-up: dose 1 mg/kg, route iv. In kind it is ADME, organism-based. The note with it: in vivo.
Data set [18] is described as follows: Toxicity in BALB/c nude mouse xenografted with human A549 cells assessed as pathological changes in heart at 5 to 10 mg/kg, ip administered every other day for 25 days by hematoxylin and eosin staining based microscopic analysis. In kind it is organism-based. Conditions: in vivo, 600 h, dose 5-10 mg/kg, time 25 day.
Data set [19] can be described thus: AUC(0 to infinity) in Sprague-Dawley rat at 1 mg/kg, iv by LC-MS analysis. The class given is ADME, organism-based. Set-up: dose 1 mg/kg, route iv. Conditions: in vivo.

By IC50 is commonly meant the concentration needed to halve the response being measured. As usually defined, the Cmax is the maximum level reached in the sampled fluid or tissue. The AUC(0-t) is exposure summed from dosing to a finite time, without extrapolation to infinity. What is called AUC is concentration integrated over time. As for `COc1cccc(Nc2cc(Nc3cccc(NC(=O)C4CC4)c3)ncn2)c1`, the Activity in data set [1] is given as 15.31%; in data set [3] it was 49.9%; in data set [4] it was 21.8%; in data set [8], 6%; in data set [9], 15.8%; in data set [10] it was “Non-Toxic”. For the same compound, the Activity is recorded as 5.78% in data set [11], “Non-Toxic” in data set [12], 15.3% in data set [14] and “Non-Toxic” in data set [18]. The viability at 0.02 µM in data set [2] was 76%. For the same compound, the inhibition in vivo at 5 mg/kg in [5] was determined as 39.1%. The results for the IC50 in data set [6], in data set [7] and in [16] were 1.1 nM, 3.6 nM and 16 nM, respectively. The viability at 0.01 µM in data set [13] was determined as 82.2%. In data set [15], the Cmax came out at 87.86 ng/mL. In data set [17], the AUC(0-t) stood at 239 ng·h/mL. This compound returned an AUC in [19] of 239.43 ng·h/mL.

The values are drawn from ChEMBL document CHEMBL5325400 (Eur J Med Chem, 2023).
